Measured values reported in patent US20250057788A1, “COMPOSITIONS AND METHODS FOR TREATMENT OF CHRONIC PAIN AND DEPRESSION” (priority 2023, published 2025).
Counter-ions that a name gives are not always drawn.

Experiments:
[1] = system: depression-related behaviors in SNL animals with chronic pain; test: Forced swim test in spinal nerve ligation (SNL) rats; type: in vivo, rat; settings: ketamine NaOH at 0.5 ratio, FIG. 5
Excerpt: Chronic pain may also lead to depressive symptoms that cause additional disability and may reflect an independent treatment target. Anti-depression effects may be modeled in rodents using behavioral measures including the forced swim test, which measures the time that rodents remain immobile when placed in water. In one model, chronic pain Is created by spinal nerve ligation (SNL) in which a ligation is placed around the left L5 nerve, which leads to hypersensitivity of the paw withdrawal threshold.
Methods: Male Sprague Dawley rats (about 150 g on arrival) from Envigo were used. Upon receipt animals were group housed for the remainder of their stay at PsychoGenics. […]
Spinal nerve ligation: Under general anesthesia with continuous inhalation of isoflurane, surgery was performed with aseptic procedures. […] Each rat was monitored until awake and moving freely around the recovery chamber. […]
Forced swim test: The forced swim (FS) test is considered to predict anti-depression effects. When rats are forced to swim in a small cylinder from which no escape is possible, they readily adopt a characteristic immobile posture and make no further attempts to escape except for small movements needed to prevent them from drowning. […] Immobility, climbing, and swimming behaviors were recorded every 5 sec for a total of 60 counts per subject. […]

[2] = system: formalin-induced pain (paw licking behavior); test: Rat formalin test (paw licking, acute and delayed/chronic phase); type: in vivo; settings: for Acute paw lick response, Mean / Chronic (delayed) paw lick response, Mean / delayed paw licking responses vs. control: 100 μM; for Acute paw lick response, Mean / Chronic (delayed) paw lick response, Mean / delayed paw licking responses vs. control / enhancement of the effects of ketamine 100 μM: Example 4; for Paw licking time, Acute, Mean / Paw licking time, Chronic, Mean: NaOH where added equimolar; for Paw licking time, Acute, Mean: acute phase 0-10 min after formalin; for Paw licking time, Chronic, Mean: delayed phase from 10 min after formalin; for enhancement of the effects of ketamine 100 μM: hydroxide combined with ketamine 100 μM; for delayed hind paw licking (marginal means), Mean: TAS2R ligand .5 mM
Experimental: In this test, effects are measured on both acute and delayed formalin-induced pain, as reflected in paw licking behavior.
Methods: All studies were performed at Psychogenics, Inc. (Tarrytown, NY). Male SD rats (Envigo) were used in the study. All rats were examined and weighed (about 200 g) prior to initiation of the study to assure adequate health and suitability. For the formalin test, rats were habituated for 30 min in observation chambers with cameras positioned underneath. After the pre-treatment time, animals received a subcutaneous injection into the plantar surface of the left hind-paw with 15 μl of 5% formalin using a Hamilton micro-syringe and a 30-gauge needle.
Rats were returned to the observation chamber and immediately observed for behavior. The total time spent licking, flinching or biting the treated hind-paw over the next 35 min was recorded and videos were scored by a trained observer blinded to the treatment group. The acute response was evaluated in 5 min intervals for 0-10 min, and the delayed response was evaluated from 10-35 or 10-40 min.
For this experiment, effects of ketamine alone vs. ketamine+NaOH were assessed at concentrations between 30 uM (μM) and […] vs. control. Secondary analyses evaluated relative effects of ketamine+NaOH vs. ketamine alone. Analyses were performed by between-group t-tests or multiway ANOVA as expected. For each experiment, outliers ±2SD from the group means were removed from the analyses as flagged in study reports.
Methods: Overall methods were the same as for Example 1. However, for this study, the concentration of ketamine was fixed at 100 μM across conditions, and the ratio of NaOH to ketamine was varied from 1:10 (0.1 ratio) to 1:2 (0.5 ratio) to 3:4 (0.75 ratio) to 1:1 (1.0 ratio). An ANOVA was conducted across ratios to determine statistical significance.
Methods: Formalin test methods were the same as for examples 1 and 2. […] Denatonium was additionally administered combined with Ketamine 100 μM.
In order to evaluate the specificity of the synergistic effect between ketamine and NaOH, formalin tests were evaluated in combination with other hydroxides, including Ca(OH)2 and KOH. […] Formalin tests were therefore conducted in the presence of 100 μM S-ketamine relative to racemic ketamine.

Q: Which immobility time [1] does the source give for `CNC1(c2ccccc2Cl)CCCCC1=O` (racemic) [Ketamine, Ketamine HCl] here?
A: Its immobility time is “significantly reduced immobility time”.

Q: And the swimming time [1]?
A: Its swimming time is “increased swimming time”.

Q: What about the “Acute paw lick response, Mean” value [2] of the same compound?
A: Its value is 54.5.

Q: What about the “Chronic (delayed) paw lick response, Mean” value [2] of the same compound?
A: Its value is 196.4.

Q: What about the “delayed paw licking responses vs. control” value [2] of the same compound?
A: The value was “did not significantly reduce delayed responses”.

Q: And the “inhibition of delayed response” value ([2]; concentrations of ≥30 mM, all p<0.005)?
A: The value was “significant inhibition of delayed response”.

Q: What about the “effects on acute response” value ([2]; doses of ≥100 mM, all p<0.001, suggesting non-specific behavioral effects) of the same compound?
A: The value was “significant effects”.

Q: What about the “Paw licking time, Acute, Mean” value ([2]; ketamine 30 μM) of the same compound?
A: Its value is 55.20 s.

Q: And the “Paw licking time, Chronic, Mean” value ([2]; ketamine 30 μM)?
A: The value was 56.00 s.

Q: What about the “delayed response, post-hoc difference vs. control” value ([2]; ketamine 30 μM, one-way ANOVA) of the same compound?
A: Its value is “significant post-hoc differences vs. control”.

Q: And the “Paw licking time, Acute, Mean” value ([2]; ketamine 100 μM)?
A: The value was 50.95 s.

Q: What about the “Paw licking time, Chronic, Mean” value ([2]; ketamine 100 μM) of the same compound?
A: Its value is 140.71 s.

Q: And the “Paw licking time, Acute, Mean” value ([2]; ketamine 300 μM)?
A: The value was 40.50 s.

Q: What about the “Paw licking time, Chronic, Mean” value ([2]; ketamine 300 μM) of the same compound?
A: Its value is 147.00 s.

Q: And the “Paw licking time, Acute, Mean” value ([2]; ketamine 30 mM)?
A: Its value is 39.44 s.

Q: What about the “Paw licking time, Chronic, Mean” value ([2]; ketamine 30 mM) of the same compound?
A: The value was 49.88 s.

Q: And the “Paw licking time, Acute, Mean” value ([2]; ketamine 100 mM)?
A: Its value is 0.11 s.

Q: What about the “Paw licking time, Chronic, Mean” value ([2]; ketamine 100 mM) of the same compound?
A: Its value is 0.00 s.

Q: And the “Paw licking time, Acute, Mean” value ([2]; ketamine 300 mM)?
A: The value was 0.11 s.

Q: And the “Paw licking time, Chronic, Mean” value ([2]; ketamine 300 mM)?
A: The value was 0.00 s.

Q: Which “enhancement of the effects of ketamine 100 μM” value [2] does the source give for `[Ca+2].[OH-].[OH-]` [Ca(OH)2] here?
A: The value was “Neither Ca(OH)2 or KOH enhanced”.

Q: How did the “delayed hyperalgesic response vs. control” value ([2]; 0.5 mM, p=0.029) turn out when `CC[N+](CC)(CC(=O)Nc1c(C)cccc1C)Cc1ccccc1` [Denatonium, Denatonium benzoate] was run?
A: The value was “significant reduction in hyperalgesia”.

Q: What about the “delayed hind paw licking (marginal means), Mean” value [2] of the same compound?
A: The value was 161.0 s.

Q: How did the “enhancement of the effects of ketamine 100 μM” value [2] turn out when `[K+].[OH-]` [KOH] was run?
A: The value was “Neither Ca(OH)2 or KOH enhanced”.

Q: `C=C[C@H]1C[N@@]2CC[C@H]1C[C@@H]2[C@@H](O)c1ccnc2ccc(OC)cc12` [Quinidine, Quinidine gluconate] was tested. Which “delayed hind paw licking (marginal means), Mean” value [2] did it give?
A: The value was 288.6 s.

Q: `CN[C@]1(c2ccccc2Cl)CCCCC1=O` [S-ketamine] was tested. Which “Acute paw lick response, Mean” value [2] did it give?
A: Its value is 50.5.

Q: What about the “Chronic (delayed) paw lick response, Mean” value [2] of the same compound?
A: Its value is 120.6.

Q: What about the “delayed paw licking responses vs. control” value [2] of the same compound?
A: The value was “numeric decreases in delayed paw licking vs. control, but the differences were not statistically significant”.
